Laboratory results reported in publication PMC11995724, “Antibiotic target discovery by integrated phenotypic and activity-based profiling of electrophilic fragments” (Cell chemical biology, 2025).
Where a name gives a salt, the structure may show the parent alone.

experiment: in vitro; conditions: human, hek293t cells

SMILES	viability at 48 h, 25 µM
Cc1ccc(C(CNC(=O)C(C)Cl)N2CCOCC2)s1 (centres unmarked) [7-N13, 2-chloro-N-[2-(5-methylthiophen-2-yl)-2-(morpholin-4-yl)ethyl]propanamide]	108%
O=C(CCl)NC1c2ccccc2CCC1n1ccnc1 (centres unmarked) [7-N14, 2-chloro-N-[2-(1H-imidazol-1-yl)-1,2,3,4-tetrahydronaphthalen-1-yl]acetamide hydrochloride]	95.8%
CNC(=O)c1ccc(C2CCCCN2C(=O)C(C)Cl)n1C (centres unmarked) [7-N15, 5-[1-(2-chloropropanoyl)piperidin-2-yl]-N,1-dimethyl-1H-pyrrole-2-carboxamide]	97.6%
CC(NC(=O)CCl)C(=O)N1c2ccccc2CC1C (centres unmarked) [7-N16, 2-chloro-N-[1-(2-methyl-2,3-dihydro-1H-indol-1-yl)-1-oxopropan-2-yl]acetamide]	0.726%
CCc1nc2c(s1)C(N(C)C(=O)C(C)Cl)CCC2 (centres unmarked) [7-N17, 2-chloro-N-(2-ethyl-4,5,6,7-tetrahydro-1,3-benzothiazol-7-yl)-N-methylpropanamide]	84.1%
O=C(CCl)NCC1CCCN(C(=O)C(F)(F)F)C1 (centres unmarked) [7-N18, 2-chloro-N-{[1-(2,2,2-trifluoroacetyl)piperidin-3-yl]methyl}acetamide]	0.898%
CC(Cl)C(=O)NC1Cc2ccccc2N(C(=O)C(F)(F)F)C1 (centres unmarked) [7-N19, 2-chloro-N-[1-(2,2,2-trifluoroacetyl)-1,2,3,4-tetrahydroquinolin-3-yl]propanamide]	87.1%
O=C(CCl)NC(Cc1cccc(O)c1)c1ccccc1 (centres unmarked) [7-N20, 2-chloro-N-[2-(3-hydroxyphenyl)-1-phenylethyl]acetamide]	0.777%
CC(Cl)C(=O)NC(C)c1nnnn1C1CC1 (centres unmarked) [7-N21, 2-chloro-N-[1-(1-cyclopropyl-1H-1,2,3,4-tetrazol-5-yl)ethyl]propanamide]	75.9%
CC(Cl)C(=O)N1Cc2cccn2[C@@H](C)C1 (stereo partly drawn) [7-N22, 2-chloro-1-[(4S)-4-methyl-1H,2H,3H,4H-pyrrolo[1,2-a]pyrazin-2-yl]propan-1-one]	86.7%
CC(Cl)C(=O)NCC1CN(c2nncs2)CCO1 (centres unmarked) [7-O03, 2-chloro-N-{[4-(1,3,4-thiadiazol-2-yl)morpholin-2-yl]methyl}propanamide]	106%
Cc1nc([C@H]2CCCN2C(=O)C(C)Cl)cs1 (stereo partly drawn) [7-O04, 2-chloro-1-[(2R)-2-(2-methyl-1,3-thiazol-4-yl)pyrrolidin-1-yl]propan-1-one]	95.2%
CC(Cl)C(=O)NC1CCN(S(=O)(=O)c2cnn(C)c2)CC1 (centres unmarked) [7-O05, 2-chloro-N-{1-[(1-methyl-1H-pyrazol-4-yl)sulfonyl]piperidin-4-yl}propanamide]	113%
CC(=O)NC1(c2nc(C)cs2)CCN(C(=O)C(C)Cl)C1 (centres unmarked) [7-O06, N-[1-(2-chloropropanoyl)-3-(4-methyl-1,3-thiazol-2-yl)pyrrolidin-3-yl]acetamide]	114%
CC(Cl)C(=O)N1CCN(C(C)C)c2ccccc2C1 (centres unmarked) [7-O07, 2-chloro-1-[1-(propan-2-yl)-2,3,4,5-tetrahydro-1H-1,4-benzodiazepin-4-yl]propan-1-one]	81.6%
CC(Cl)C(=O)NCCc1csc(N2CCCC2)n1 (centres unmarked) [7-O08, 2-chloro-N-{2-[2-(pyrrolidin-1-yl)-1,3-thiazol-4-yl]ethyl}propanamide]	95.9%
CC(Cl)C(=O)N[C@H](CC(N)=O)c1cccc(Cl)c1 (stereo partly drawn) [7-O09, (3R)-3-(3-chlorophenyl)-3-(2-chloropropanamido)propanamide]	102%
Cc1ccc(CNC(=O)C(C)Cl)c2ccccc12 (centres unmarked) [7-O10, 2-chloro-N-[(4-methylnaphthalen-1-yl)methyl]propanamide]	88.6%
Cc1noc(C)c1S(=O)(=O)N1CCCN(C(=O)C(C)Cl)CC1 (centres unmarked) [7-O11, 2-chloro-1-{4-[(3,5-dimethyl-1,2-oxazol-4-yl)sulfonyl]-1,4-diazepan-1-yl}propan-1-one]	89.5%
CC(Cl)C(=O)N1CCC(c2cc3ccccc3[nH]2)C1 (centres unmarked) [7-O12, 2-chloro-1-[3-(1H-indol-2-yl)pyrrolidin-1-yl]propan-1-one]	82.5%
Cc1cc(C2(NC(=O)C(C)Cl)CCOCC2)on1 (centres unmarked) [7-O13, 2-chloro-N-[4-(3-methyl-1,2-oxazol-5-yl)oxan-4-yl]propanamide]	95.5%
Cc1noc(C)c1COC1CCN(C(=O)C(C)Cl)C1 (centres unmarked) [7-O14, 2-chloro-1-{3-[(3,5-dimethyl-1,2-oxazol-4-yl)methoxy]pyrrolidin-1-yl}propan-1-one]	90.9%
CC(Cl)C(=O)N1C2CCC1CC(c1ccnn1C)C2 (centres unmarked) [7-O15, 2-chloro-1-[3-(1-methyl-1H-pyrazol-5-yl)-8-azabicyclo[3.2.1]octan-8-yl]propan-1-one]	88.6%
CCC(C)C1CN(Cc2ccc(C)nc2)CCN1C(=O)C(C)Cl (centres unmarked) [7-O16, 1-[2-(butan-2-yl)-4-[(6-methylpyridin-3-yl)methyl]piperazin-1-yl]-2-chloropropan-1-one]	74.9%
CC(Cl)C(=O)NCc1nc2cccnc2n1C (centres unmarked) [7-O17, 2-chloro-N-({3-methyl-3H-imidazo[4,5-b]pyridin-2-yl}methyl)propanamide]	103%

SMILES	viability at 48 h, 25 µM
CC(Cl)C(=O)NCc1cccc(N2C(=O)NC3(CCCC3)C2=O)c1 (centres unmarked) [7-O18, 2-chloro-N-[(3-{2,4-dioxo-1,3-diazaspiro[4.4]nonan-3-yl}phenyl)methyl]propanamide]	103%
Cc1cc(C)n(CCCNC(=O)C(C)Cl)n1 (centres unmarked) [7-O19, 2-chloro-N-[3-(3,5-dimethyl-1H-pyrazol-1-yl)propyl]propanamide]	78.1%
CC(Cl)C(=O)NCC1CC(=O)N(c2ccccc2)C1 (centres unmarked) [7-O20, 2-chloro-N-[(5-oxo-1-phenylpyrrolidin-3-yl)methyl]propanamide]	85.1%
Cc1nc2ccccc2n(CCCNC(=O)C(C)Cl)c1=O (centres unmarked) [7-O21, 2-chloro-N-[3-(3-methyl-2-oxo-1,2-dihydroquinoxalin-1-yl)propyl]propanamide]	59.4%
CC(Cl)C(=O)Nc1ccc(Cc2nnc3ncccn23)cc1 (centres unmarked) [7-O22, 2-chloro-N-[4-({[1,2,4]triazolo[4,3-a]pyrimidin-3-yl}methyl)phenyl]propanamide]	74.1%
Cc1ccsc1CN(C(=O)CCl)C(C)C [7-P03, 2-chloro-N-[(3-methylthiophen-2-yl)methyl]-N-(propan-2-yl)acetamide]	0.159%
O=C(CCl)NCCC1CCCC1(F)F (centres unmarked) [7-P04, 2-chloro-N-[2-(2,2-difluorocyclopentyl)ethyl]acetamide]	1.08%
CC(Cl)C(=O)NCc1nn(-c2ccccc2)c2c1CCC2 (centres unmarked) [7-P05, 2-chloro-N-({1-phenyl-1H,4H,5H,6H-cyclopenta[c]pyrazol-3-yl}methyl)propanamide]	116%
O=C(CCl)NC1CCN(C(=O)c2ccccc2)C1 (centres unmarked) [7-P06, N-(1-benzoylpyrrolidin-3-yl)-2-chloroacetamide]	0.866%
CC(Cl)C(=O)NC(C)C(=O)Nc1ccc(-n2cncn2)cc1 (centres unmarked) [7-P07, 2-chloro-N-(1-{[4-(1H-1,2,4-triazol-1-yl)phenyl]carbamoyl}ethyl)propanamide]	98.6%
O=C(CCl)NC1C=C(c2ccc(Cl)cc2)CCC1 (centres unmarked) [7-P08, 2-chloro-N-[3-(4-chlorophenyl)cyclohex-2-en-1-yl]acetamide]	0.393%
COc1ccc(Cl)c2c1CCCC2N(C)C(=O)C(C)Cl (centres unmarked) [7-P09, 2-chloro-N-(8-chloro-5-methoxy-1,2,3,4-tetrahydronaphthalen-1-yl)-N-methylpropanamide]	86.7%
CCn1nc(C)c(CNC(=O)CCl)c1C [7-P10, 2-chloro-N-[(1-ethyl-3,5-dimethyl-1H-pyrazol-4-yl)methyl]acetamide]	30%
CC(Cl)C(=O)NCCc1nc2cc(F)ccc2s1 (centres unmarked) [7-P11, 2-chloro-N-[2-(5-fluoro-1,3-benzothiazol-2-yl)ethyl]propanamide]	89.1%
Cc1ccc(F)c(S(=O)(=O)NCCNC(=O)CCl)c1 [7-P12, 2-chloro-N-[2-(2-fluoro-5-methylbenzenesulfonamido)ethyl]acetamide]	1.05%
Cc1nc(C)n(C2CCCN(C(=O)C(C)Cl)C2)n1 (centres unmarked) [7-P13, 2-chloro-1-[3-(3,5-dimethyl-1H-1,2,4-triazol-1-yl)piperidin-1-yl]propan-1-one]	92.3%
NC(=O)c1ccccc1N1CCC(NC(=O)CCl)CC1 [7-P14, 2-[4-(2-chloroacetamido)piperidin-1-yl]benzamide hydrochloride]	0.53%
CC(Cl)C(=O)NCC(=O)N(C)Cc1cccnc1 (centres unmarked) [7-P15, 2-chloro-N-({methyl[(pyridin-3-yl)methyl]carbamoyl}methyl)propanamide]	91.3%
O=C(CCl)N[C@H]1CCN(S(=O)(=O)c2ccccc2)C1 [7-P16, N-[(3S)-1-(benzenesulfonyl)pyrrolidin-3-yl]-2-chloroacetamide]	0.479%
Cc1cc(C)n(CC2CCN(C(=O)C(C)Cl)CC2)n1 (centres unmarked) [7-P17, 2-chloro-1-{4-[(3,5-dimethyl-1H-pyrazol-1-yl)methyl]piperidin-1-yl}propan-1-one]	79.8%
CC(c1ccc(C(F)(F)F)cc1F)N(C)C(=O)CCl (centres unmarked) [7-P18, 2-chloro-N-{1-[2-fluoro-4-(trifluoromethyl)phenyl]ethyl}-N-methylacetamide]	0.35%
Cc1nn(CC(C)C)c(Cl)c1C1CCCN1C(=O)C(C)Cl (centres unmarked) [7-P19, 2-chloro-1-{2-[5-chloro-3-methyl-1-(2-methylpropyl)-1H-pyrazol-4-yl]pyrrolidin-1-yl}propan-1-one]	78%
O=C(CCl)NCC(F)(F)c1cc(-c2ccccc2)n[nH]1 [7-P20, 2-chloro-N-[2,2-difluoro-2-(3-phenyl-1H-pyrazol-5-yl)ethyl]acetamide]	0.938%
CN(CCc1ccccc1O)C(=O)CCl [7-P21, 2-chloro-N-[2-(2-hydroxyphenyl)ethyl]-N-methylacetamide]	-0.172%
CC(Cl)C(=O)N1CCN(C(C)c2cccc(C#N)c2)CC1 (centres unmarked) [7-P22, 3-{1-[4-(2-chloropropanoyl)piperazin-1-yl]ethyl}benzonitrile]	66.4%
